Values quoted from earlier work in patent US10888535B2, “Skin disinfectant composition” (priority 2015, dated 2021).

solubility in water | SMILES
sufficient solubility in water | CCCCCCCCN=C(N)NC(N)=NCc1ccc(Cl)c(Cl)c1.O=C(O)[C@H](O)[C@@H](O)[C@H](O)[C@H](O)CO [gluconate of olanexidine]
extremely insoluble in water | CCCCCCCCNC(=N)NC(=N)NCc1ccc(Cl)c(Cl)c1 [Olanexidine, 1-(3,4-dichlorobenzyl)-5-octylbiguanide]
